Experimental data: ChEMBL document CHEMBL1201862, “PubChem BioAssay data set” (2004)
Values joined by “and” are separate entries in the source; they are usually repeats but may differ in a detail not shown here. Equal entries are not always repeated. Active and inactive are the calls of the source.

How the values were obtained:
[1] = test system: Streptococcus sp. 'group A'; assay: growth inhibition of control SK(-) GAS strain, dose response, counter-screen for streptokinase expression inhibitor project, luminescence, kanamycin, BacTiterGlo, confirmation (AID 1900); format: functional, organism-based
Streptokinase A = target: T1, Streptokinase A (Streptococcus pyogenes serotype M1, UniProt P10520); assay: S. pyogenes streptokinase expression inhibitors, potency, dose response, plasminogen activation absorbance, OD405 (AID 1914); format: functional, Streptococcus pyogenes M1 GAS;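 also: secreted streptokinase activity via plasminogen activation per viability signal from cell pellet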
T1 sequence (P10520 whole entry): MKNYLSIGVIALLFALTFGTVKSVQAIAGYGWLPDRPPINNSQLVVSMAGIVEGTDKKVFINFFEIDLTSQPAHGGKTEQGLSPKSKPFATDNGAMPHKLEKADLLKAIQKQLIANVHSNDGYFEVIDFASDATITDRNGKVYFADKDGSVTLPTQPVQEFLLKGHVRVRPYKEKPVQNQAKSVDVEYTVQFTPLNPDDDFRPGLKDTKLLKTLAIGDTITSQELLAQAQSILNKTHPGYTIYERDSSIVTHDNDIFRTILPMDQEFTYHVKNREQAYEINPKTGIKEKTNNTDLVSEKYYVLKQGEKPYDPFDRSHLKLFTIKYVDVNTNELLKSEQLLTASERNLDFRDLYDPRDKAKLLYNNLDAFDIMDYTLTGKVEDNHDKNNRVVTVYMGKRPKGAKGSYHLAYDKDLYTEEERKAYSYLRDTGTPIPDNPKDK

Streptococcus = assay: Group A Streptococcus viability loss, dose response, counter-screen for streptokinase expression inhibitor project, luminescence, BacTiterGlo (AID 1915); format: functional, organism-based;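 also: potency for reduction of bacterial viability or growth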
X-box-binding protein 1 = X-box-binding protein 1 (Homo sapiens, UniProt P17861); format: functional, Cricetulus griseus;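 also: confirmatory dose-response counter-screen serving a CHOP assay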
X-box-binding protein 1, sequence (P17861 whole entry): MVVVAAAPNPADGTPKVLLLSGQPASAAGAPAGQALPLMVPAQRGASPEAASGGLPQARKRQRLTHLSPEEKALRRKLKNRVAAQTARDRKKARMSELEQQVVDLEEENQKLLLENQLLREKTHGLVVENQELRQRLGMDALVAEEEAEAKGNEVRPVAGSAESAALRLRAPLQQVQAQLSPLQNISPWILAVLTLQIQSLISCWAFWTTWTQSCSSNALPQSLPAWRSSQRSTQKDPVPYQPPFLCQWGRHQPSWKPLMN

Genome polyprotein = Genome polyprotein (Hepatitis C virus, UniProt Q2Q167); assay: HCV core protein dimerization inhibitors, dose response, biochemical, TR-FRET (AID 2159); parameters: species or system Hepacivirus hominis;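 also: blocks dimerization of HCV core protein measured by TR-FRET between tagged core106 pairs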
Genome polyprotein, sequence (Q2Q167 whole entry): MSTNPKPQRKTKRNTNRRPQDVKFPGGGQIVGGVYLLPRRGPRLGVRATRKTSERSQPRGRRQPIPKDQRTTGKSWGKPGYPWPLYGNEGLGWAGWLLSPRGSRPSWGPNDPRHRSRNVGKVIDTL

[2] = compounds displacing fluorescent intercalator from DNA, dose response, counter-screen for HCV NS3 helicase inhibitor project, biochemical, fluorescence (AID 2172)
Bcl-2-like protein 10 = Bcl-2-like protein 10 (Homo sapiens, UniProt Q9HD36); assay: displacers of TR3 peptide from Bcl-B, primary screen, selectivity assay for Bfl-1 inhibitor project, biochemical, fluorescence polarization, FITC-TR3 peptide (AID 748);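 also: fluorescence polarization from a fluorescein-labelled TR3 peptide binding purified Bcl-B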
Bcl-2-like protein 10, sequence (Q9HD36 whole entry): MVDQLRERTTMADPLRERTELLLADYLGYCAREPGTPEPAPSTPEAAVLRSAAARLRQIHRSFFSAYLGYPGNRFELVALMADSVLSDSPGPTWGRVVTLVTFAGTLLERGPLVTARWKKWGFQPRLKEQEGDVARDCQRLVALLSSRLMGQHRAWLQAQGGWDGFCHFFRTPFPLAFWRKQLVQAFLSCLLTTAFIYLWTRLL

NS3 = NS3 (Hepatitis C virus, UniProt A3EZJ3); assay: PubChem AID 2173; parameters: species or system Hepacivirus hominis
NS3, sequence (A3EZJ3 whole entry): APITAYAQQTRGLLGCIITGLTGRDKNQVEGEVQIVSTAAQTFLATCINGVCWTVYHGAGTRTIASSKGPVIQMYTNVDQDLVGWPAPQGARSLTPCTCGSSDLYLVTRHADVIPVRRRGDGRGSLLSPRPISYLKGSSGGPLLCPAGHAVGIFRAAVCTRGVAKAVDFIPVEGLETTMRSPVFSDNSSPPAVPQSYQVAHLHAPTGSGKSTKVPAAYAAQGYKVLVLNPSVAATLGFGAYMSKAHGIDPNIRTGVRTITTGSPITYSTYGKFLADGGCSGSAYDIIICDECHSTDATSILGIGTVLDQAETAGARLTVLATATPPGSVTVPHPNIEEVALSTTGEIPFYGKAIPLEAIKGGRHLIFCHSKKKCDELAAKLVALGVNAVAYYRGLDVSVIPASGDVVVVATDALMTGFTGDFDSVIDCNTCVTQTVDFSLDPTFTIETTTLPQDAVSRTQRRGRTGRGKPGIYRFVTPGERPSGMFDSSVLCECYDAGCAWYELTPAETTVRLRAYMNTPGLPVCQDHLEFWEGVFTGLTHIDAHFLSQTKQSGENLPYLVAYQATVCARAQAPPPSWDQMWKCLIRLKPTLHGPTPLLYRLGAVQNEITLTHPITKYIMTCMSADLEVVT

[3] = target: Protein-tyrosine kinase 2-beta (Homo sapiens, UniProt Q14289);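 also: potency of inhibitors of PYK2 kinase phosphorylation of poly-GT substrate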
Protein-tyrosine kinase 2-beta, sequence (Q14289 whole entry): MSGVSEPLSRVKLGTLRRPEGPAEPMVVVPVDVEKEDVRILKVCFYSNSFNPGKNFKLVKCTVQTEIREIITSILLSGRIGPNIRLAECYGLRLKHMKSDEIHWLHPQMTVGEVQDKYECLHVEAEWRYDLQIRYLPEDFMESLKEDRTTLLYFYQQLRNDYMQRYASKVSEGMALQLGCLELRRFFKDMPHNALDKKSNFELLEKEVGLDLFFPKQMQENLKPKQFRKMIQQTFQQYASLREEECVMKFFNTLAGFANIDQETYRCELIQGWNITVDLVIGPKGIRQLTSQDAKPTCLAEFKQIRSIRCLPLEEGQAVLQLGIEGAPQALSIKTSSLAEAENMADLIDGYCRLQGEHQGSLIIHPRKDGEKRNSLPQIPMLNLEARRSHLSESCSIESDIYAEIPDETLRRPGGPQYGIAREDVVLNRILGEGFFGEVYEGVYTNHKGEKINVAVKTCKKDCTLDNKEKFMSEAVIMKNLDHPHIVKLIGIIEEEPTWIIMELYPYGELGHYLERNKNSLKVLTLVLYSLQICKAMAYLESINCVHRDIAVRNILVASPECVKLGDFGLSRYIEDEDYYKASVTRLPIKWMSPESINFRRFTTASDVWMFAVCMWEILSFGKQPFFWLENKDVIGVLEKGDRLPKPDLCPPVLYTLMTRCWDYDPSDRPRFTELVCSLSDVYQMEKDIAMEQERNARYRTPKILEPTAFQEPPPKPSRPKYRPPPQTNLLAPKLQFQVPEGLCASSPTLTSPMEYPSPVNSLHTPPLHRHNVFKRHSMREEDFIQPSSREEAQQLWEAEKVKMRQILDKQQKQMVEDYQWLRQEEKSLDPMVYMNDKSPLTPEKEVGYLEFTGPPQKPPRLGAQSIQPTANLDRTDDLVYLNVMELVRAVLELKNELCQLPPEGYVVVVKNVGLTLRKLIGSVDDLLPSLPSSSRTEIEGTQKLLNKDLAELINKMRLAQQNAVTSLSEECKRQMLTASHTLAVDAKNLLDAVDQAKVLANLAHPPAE

[4] = target: T2, Tyrosine-protein phosphatase non-receptor type 7 (Homo sapiens, UniProt P35236); assay: redox-dependent HePTP inhibition, mechanism study, biochemical, fluorescence (AID 2068); format: functional
T2 sequence (P35236 whole entry): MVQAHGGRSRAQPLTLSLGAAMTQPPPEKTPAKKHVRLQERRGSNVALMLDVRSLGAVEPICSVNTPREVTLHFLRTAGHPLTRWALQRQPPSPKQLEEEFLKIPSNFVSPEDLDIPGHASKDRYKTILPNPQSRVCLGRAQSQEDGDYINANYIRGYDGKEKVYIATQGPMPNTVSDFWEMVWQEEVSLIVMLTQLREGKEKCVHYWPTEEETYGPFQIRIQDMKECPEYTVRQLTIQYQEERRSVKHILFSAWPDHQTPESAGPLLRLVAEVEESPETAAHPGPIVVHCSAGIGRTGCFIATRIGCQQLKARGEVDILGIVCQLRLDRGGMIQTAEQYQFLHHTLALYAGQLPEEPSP

[5] = target: Eukaryotic translation initiation factor 4E (Mus musculus, UniProt P63073); assay: eIF4E–eIF4G protein interaction inhibitors, dose response, biochemical, TR-FRET (AID 855); format: functional;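 also: potency for disrupting eIF4E binding to eIF4GI seen as loss of FRET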
Eukaryotic translation initiation factor 4E, sequence (P63073 whole entry): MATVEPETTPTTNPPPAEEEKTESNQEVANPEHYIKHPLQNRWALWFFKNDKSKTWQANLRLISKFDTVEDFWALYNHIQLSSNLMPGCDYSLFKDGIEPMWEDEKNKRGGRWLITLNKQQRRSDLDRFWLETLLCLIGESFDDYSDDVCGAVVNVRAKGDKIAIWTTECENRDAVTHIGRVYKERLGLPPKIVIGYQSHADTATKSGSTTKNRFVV

[6] = target: Cyclin-dependent kinase 5/CDK5 activator 1 (Homo sapiens, UniProt Q00535); assay: CDK5/p35 kinase inhibitors, dose response, biochemical, cherry-picked samples, set 2 (AID 504545)
Cyclin-dependent kinase 5/CDK5 activator 1, sequence (Q00535 whole entry): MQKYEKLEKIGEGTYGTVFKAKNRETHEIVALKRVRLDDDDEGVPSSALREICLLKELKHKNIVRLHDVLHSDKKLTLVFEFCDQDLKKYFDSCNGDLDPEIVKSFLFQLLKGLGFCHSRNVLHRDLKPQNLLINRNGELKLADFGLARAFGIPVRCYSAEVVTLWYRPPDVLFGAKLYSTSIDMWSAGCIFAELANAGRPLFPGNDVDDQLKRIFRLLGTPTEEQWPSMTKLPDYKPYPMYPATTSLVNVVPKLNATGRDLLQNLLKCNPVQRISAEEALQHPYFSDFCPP
Cyclin-dependent kinase 5/CDK5 activator 1, sequence (Q15078 whole entry, further chain): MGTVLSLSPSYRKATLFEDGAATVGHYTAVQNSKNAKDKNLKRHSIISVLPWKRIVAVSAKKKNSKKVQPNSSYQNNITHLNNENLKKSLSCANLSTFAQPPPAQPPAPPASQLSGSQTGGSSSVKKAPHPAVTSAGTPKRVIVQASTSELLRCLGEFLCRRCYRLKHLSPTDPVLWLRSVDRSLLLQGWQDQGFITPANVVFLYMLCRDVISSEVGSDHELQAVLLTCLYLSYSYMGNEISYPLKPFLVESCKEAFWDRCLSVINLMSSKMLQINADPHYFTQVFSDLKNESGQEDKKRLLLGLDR

[7] = target: Dual specificity tyrosine-phosphorylation-regulated kinase 1A (Rattus norvegicus, UniProt Q63470); format: biochemical, Homo sapiens
[8] = inhibitors of HIV Env-driven cell fusion, dose response, cherry-pick (AID 652057); format: functional, cell-based
[9] = CEM21 lymphoblast cell cytotoxicity, dose response, cytotoxicity control for viral fusion inhibitor project, CellTiter-Glo luminescence, cherry-picked (AID 652042); format: functional, cell-based;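 also: potency for signal decrease meaning cytotoxicity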
[10] = ZM109 Env clade C HIV-1 fusion inhibitors, dose response, HeLa effector, CEM target cells, luciferase, cherry-pick (AID 652058); format: functional, cell-based
Paired box protein Pax-8 = Paired box protein Pax-8 (Homo sapiens, UniProt Q06710); assay: inhibitors of PAX8-driven TPO luciferase reporter, dose response, RMG-I cells, cherry-pick (AID 687027); format: functional, cell-based;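 also: luciferase reporter driven by Pax8 target thyroperoxidase promoter measured by SteadyGlo luminescence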
Paired box protein Pax-8, sequence (Q06710 whole entry, the tested form may be a part): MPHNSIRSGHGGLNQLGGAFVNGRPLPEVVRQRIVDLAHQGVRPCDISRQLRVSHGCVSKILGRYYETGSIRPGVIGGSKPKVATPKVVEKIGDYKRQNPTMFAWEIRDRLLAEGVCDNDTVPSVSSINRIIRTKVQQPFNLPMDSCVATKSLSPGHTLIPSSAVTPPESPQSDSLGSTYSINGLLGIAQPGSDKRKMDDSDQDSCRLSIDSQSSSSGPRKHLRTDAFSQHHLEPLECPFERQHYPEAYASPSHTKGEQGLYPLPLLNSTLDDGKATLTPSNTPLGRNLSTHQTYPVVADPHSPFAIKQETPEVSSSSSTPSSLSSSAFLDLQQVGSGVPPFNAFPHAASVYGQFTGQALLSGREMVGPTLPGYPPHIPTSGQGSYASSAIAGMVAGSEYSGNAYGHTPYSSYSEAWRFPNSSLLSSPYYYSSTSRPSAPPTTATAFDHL

[11] = off-target signal loss in HeLa-CEM21 co-culture – HeLa F-luc CTL cells, cherry-picked, counter-screen for HIV-1 Env fusion inhibitor project, dose response (AID 652040); format: functional, cell-based;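 also: potency for signal decrease marking cytotoxic or nonspecific inhibition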
[12] = inhibitors of clade B AD8 Env fusion, dose response, cell-based, cherry-pick (AID 652062); format: functional;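 also: luciferase signal from cell-cell fusion driven by HIV-1 clade B AD8 Env; potency is for inhibitors of fusion seen as a drop in luminescence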
[13] = Cytotoxicity screening for potential Inhibitors of Bacterial Capsule Biogenesis. [Related pubchem assays (depositor defined):AID488970]; format: functional
Nonstructural protein 1 = Nonstructural protein 1 (Influenza A virus, UniProt Q194T2); format: functional, Influenza A virus (A/California/07/2009(H1N1))
Nonstructural protein 1, sequence (Q194T2 whole entry): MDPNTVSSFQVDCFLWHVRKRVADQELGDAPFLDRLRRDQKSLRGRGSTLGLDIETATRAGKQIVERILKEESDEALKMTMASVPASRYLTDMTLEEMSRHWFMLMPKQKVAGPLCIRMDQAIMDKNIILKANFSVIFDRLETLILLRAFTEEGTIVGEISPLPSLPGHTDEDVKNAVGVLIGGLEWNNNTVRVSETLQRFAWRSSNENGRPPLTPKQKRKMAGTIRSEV

[14] = HeLa cell cytotoxicity, dose response, cytotoxicity control for MgcRacGAP inhibitor project (AID 624300); format: functional
[15] = target: T3, Rac GTPase-activating protein 1 (Homo sapiens, UniProt Q9H0H5); assay: MgcRacGAP GTPase-activating activity inhibitors, confirmation, biochemical, ADP Hunter fluorescence, primary and confirmatory (AID 624330); format: functional
T3 sequence (Q9H0H5 whole entry): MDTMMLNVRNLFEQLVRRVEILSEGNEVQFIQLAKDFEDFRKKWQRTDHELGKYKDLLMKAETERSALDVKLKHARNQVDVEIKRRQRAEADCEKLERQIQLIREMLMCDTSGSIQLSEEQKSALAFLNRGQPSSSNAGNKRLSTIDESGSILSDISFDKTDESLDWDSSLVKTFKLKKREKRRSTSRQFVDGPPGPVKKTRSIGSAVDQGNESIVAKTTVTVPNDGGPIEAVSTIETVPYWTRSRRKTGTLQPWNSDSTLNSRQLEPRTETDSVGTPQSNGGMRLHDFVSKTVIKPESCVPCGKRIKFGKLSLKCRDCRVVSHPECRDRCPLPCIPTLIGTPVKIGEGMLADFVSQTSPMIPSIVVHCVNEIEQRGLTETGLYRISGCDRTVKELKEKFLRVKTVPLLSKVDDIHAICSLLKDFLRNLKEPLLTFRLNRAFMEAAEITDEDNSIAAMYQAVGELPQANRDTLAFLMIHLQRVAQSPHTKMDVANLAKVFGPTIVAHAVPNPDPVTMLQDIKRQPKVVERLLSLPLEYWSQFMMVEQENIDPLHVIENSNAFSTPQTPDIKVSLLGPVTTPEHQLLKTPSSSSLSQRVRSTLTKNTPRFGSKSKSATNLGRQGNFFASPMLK

[16] = target: T4, DNA repair protein RAD52 homolog (Homo sapiens, UniProt P43351); format: functional, biochemical
T4 sequence (P43351 whole entry): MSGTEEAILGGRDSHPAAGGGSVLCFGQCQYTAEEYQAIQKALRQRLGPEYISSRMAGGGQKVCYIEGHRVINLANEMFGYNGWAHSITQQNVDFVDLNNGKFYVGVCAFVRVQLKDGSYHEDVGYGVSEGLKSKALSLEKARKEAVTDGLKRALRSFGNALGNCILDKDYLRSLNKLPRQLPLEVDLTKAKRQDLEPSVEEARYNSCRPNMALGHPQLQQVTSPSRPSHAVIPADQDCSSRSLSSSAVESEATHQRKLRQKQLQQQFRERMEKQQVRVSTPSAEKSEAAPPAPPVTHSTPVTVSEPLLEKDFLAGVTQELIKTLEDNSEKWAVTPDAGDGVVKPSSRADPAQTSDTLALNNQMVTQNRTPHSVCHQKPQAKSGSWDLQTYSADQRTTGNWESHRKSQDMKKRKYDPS

[17] = target: T5, Histone-lysine N-methyltransferase NSD2 (Homo sapiens, UniProt O96028); format: biochemical
T5 sequence (O96028 whole entry): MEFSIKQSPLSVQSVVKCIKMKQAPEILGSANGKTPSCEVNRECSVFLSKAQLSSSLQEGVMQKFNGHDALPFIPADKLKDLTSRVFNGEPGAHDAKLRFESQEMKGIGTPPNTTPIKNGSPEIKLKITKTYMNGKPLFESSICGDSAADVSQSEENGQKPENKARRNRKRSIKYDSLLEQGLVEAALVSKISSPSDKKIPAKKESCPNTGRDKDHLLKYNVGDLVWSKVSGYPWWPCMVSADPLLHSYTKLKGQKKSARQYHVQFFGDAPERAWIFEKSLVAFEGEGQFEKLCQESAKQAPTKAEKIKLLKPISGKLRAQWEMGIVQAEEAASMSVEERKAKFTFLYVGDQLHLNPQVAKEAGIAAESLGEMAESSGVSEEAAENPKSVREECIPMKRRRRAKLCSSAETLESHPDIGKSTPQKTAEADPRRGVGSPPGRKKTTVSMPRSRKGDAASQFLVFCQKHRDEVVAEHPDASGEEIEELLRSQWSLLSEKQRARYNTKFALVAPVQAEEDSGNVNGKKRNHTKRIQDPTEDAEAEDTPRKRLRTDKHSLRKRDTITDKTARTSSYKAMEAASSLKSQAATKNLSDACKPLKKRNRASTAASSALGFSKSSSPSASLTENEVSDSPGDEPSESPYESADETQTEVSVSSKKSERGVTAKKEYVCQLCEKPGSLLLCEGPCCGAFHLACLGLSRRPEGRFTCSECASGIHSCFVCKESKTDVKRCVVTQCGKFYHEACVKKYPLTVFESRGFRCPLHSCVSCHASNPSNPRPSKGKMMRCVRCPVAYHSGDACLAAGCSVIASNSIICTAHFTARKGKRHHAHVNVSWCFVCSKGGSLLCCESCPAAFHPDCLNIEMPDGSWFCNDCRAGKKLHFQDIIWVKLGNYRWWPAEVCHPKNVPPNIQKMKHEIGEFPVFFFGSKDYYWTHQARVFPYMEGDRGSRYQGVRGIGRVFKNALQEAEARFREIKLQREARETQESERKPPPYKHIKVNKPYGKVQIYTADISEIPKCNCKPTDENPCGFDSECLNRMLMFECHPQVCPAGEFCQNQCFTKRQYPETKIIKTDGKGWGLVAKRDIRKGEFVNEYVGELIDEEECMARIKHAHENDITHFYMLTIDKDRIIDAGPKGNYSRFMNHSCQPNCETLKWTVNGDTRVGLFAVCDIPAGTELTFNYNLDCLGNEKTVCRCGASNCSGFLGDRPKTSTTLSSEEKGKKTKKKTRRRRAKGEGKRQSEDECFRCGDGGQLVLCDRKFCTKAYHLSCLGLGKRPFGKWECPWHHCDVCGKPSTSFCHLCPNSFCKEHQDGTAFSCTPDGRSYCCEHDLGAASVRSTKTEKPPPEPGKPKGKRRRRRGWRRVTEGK

[18] = human group III sPLA2 inhibitors, dose response, biochemical, QFRET, IC50 (AID 743457);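 also: green fluorescence rise as the enzyme cleaves BODIPY PC-A2 in liposomes; potency for inhibition of the enzyme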

## Cc1cc(O)c(NC(=S)NC(=O)c2ccc(-c3ccc(Cl)cc3)o2)cc1C
[1]
  EC50: 959 nM (active)
Streptokinase A
  EC50: > 150000 nM (not active)
Streptococcus
  EC50: 12200 nM (active)
X-box-binding protein 1
  Absolute IC50 (XBP1): 10000 nM

## CC(=O)c1ccc(NC(=O)c2ccc3nc(-c4ccco4)c(-c4ccco4)nc3c2)cc1
Genome polyprotein
  IC50: > 49800 nM (not active)
[2]
  IC50: 83500 nM (not active)
Bcl-2-like protein 10
  IC50: 14600 nM (active)
NS3
  IC50: 5880 nM (active)
[3]
  IC50: 1240 nM (active)
[4]
  IC50: 998 nM (active) and 805 nM (active)
[5]
  IC50: > 64000 nM (inactive)

## N#Cc1c(N)n(C2OC(CO)C(O)C2O)c2ncnc(N)c12 (configuration not stated)
[6]
  AC50: 8580 nM (active)
[7]
  AC50: 120 nM (active)
[8]
  AC50: 609 nM (active)
[9]
  AC50: < 260 nM (active)
[10]
  AC50: 822 nM (active)
Paired box protein Pax-8
  AC50: < 260 nM (active)
[11]
  AC50: 663 nM (active)
[12]
  AC50: 2860 nM (active)

## O=C1c2c(O)ccc(O)c2C(=O)c2c(NCCNCCO)ccc(NCCNCCO)c21 [MITOXANTRONE]
[13]
  CC50: < 380 nM (active)
Nonstructural protein 1
  IC50: 2050 nM (active)
[7]
  AC50: 1250 nM (active)
[14]
  CC50: 6340 nM (active)
[15]
  IC50: 14500 nM (active)
[16]
  AC50: < 244 nM (active)
[17]
  AC50: 2340 nM (active)
[18]
  IC50: > 122000 nM (inactive)
